Reference: US20110045032A1 (priority 2001, published 2011)

Assays:
[1] = tested on: Intracellular Adenosine in various Rat Tissues; format: in vivo
Experimental: Folinic acid (50 mg/kg) was administered intraperitoneally once daily for fourteen days. […] Hearts were removed from animals and flash frozen in liquid nitrogen with 10 seconds of death. Liver and lungs were removed en bloc and flash frozen with 30 seconds of death. Brain tissue was subsequently dissected.

HT-29 SF cells [2] = assay: Reversal of DHEA-mediated growth inhibition by supplements; format: cell-based, human; conditions: 25 μM DHEA, 48 hours of treatment
HT-29 SF cells [3] = assay: Reversal of DHEA effect on cell cycle by supplements; format: cell-based, human; conditions: 25 μM DHEA
HT-29 SF cells [4] = assay: DHEA effect on cell cycle distribution (flow cytometry); format: cell-based, human; conditions: 25-200 μM, 24-72 hours; time- and dose-dependent
Experimental: Cells were plated at 10^5/60-mm dish in duplicate. […] Cultures were trypsinized following […] and fixed and stained using a modification of a procedure of Bauer et al., Cancer Res., 46, 3173-3178 (1986). Briefly, cells were collected by centrifugation and resuspended in cold phosphate-buffered saline. Cells were fixed in 70% ethanol, washed, and resuspended in phosphate-buffered saline.
After 24, 48, and 72 hours, cells were harvested, fixed in ethanol, and stained with propidium iodide, and the DNA content/cell was determined by flow cytometric analysis. The percentage of cells in G1, S, and G2M phases was calculated using the Cellfit cell cycle analysis program. S phase is marked by a quadrangle for clarity. Representative histograms from duplicate determinations are shown. The experiment was repeated three times.

HT-29 SF cells [5] = assay: DHEA effect on cell growth (Coulter counter)
Experimental: Cell cultures, HT-29 SF cells, which represent a subline of HY-29 cells (ATCC, Rockville, Md.) and are adapted for growth in completely defined serum-free PC-1 medium (Ventrex, Portland, Me.), were obtained. Stock cultures were maintained in this medium at 37° (in a humidified atmosphere containing 5% CO2).

[6] = tested on: adult acute asthma exacerbation; conditions: in conjunction with beta 2-agonists; adult and pediatric studies; cited from earlier work
mast cell = conditions: cell incubation for 5 min; cited from earlier work
[7] = tested on: patients with mild-to-moderate asthma; conditions: cited from earlier work
[8] = tested on: dust mite-sensitized rabbits; assay: Adenosine sensitivity PC40 (Example 25 animals); conditions: 4 animals
[9] = tested on: dust mite-sensitized rabbits; assay: Adenosine sensitivity PC40 (Example 26 animals); conditions: 5 animals
muscarinic receptors = conditions: cited from earlier work
[10] = target: T1, M(1)-muscarinic receptors (Homo sapiens, UniProt P11229); conditions: cited from earlier work
T1 sequence (P11229 1-460): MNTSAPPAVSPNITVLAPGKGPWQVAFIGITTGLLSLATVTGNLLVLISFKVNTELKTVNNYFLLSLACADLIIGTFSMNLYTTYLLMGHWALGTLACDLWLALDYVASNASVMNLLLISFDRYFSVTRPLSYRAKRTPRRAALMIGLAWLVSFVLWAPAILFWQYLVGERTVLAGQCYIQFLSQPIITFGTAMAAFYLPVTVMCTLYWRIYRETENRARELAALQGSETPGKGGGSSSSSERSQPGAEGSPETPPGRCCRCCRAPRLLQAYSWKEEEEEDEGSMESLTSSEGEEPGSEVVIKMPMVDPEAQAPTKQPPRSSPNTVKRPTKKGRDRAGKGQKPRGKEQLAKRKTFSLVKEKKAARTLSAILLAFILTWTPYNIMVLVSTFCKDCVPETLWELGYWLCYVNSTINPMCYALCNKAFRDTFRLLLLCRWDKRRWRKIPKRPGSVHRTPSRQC

[11] = tested on: asthmatic and chronic obstructive pulmonary disease (COPD) patients; conditions: cited from earlier work
mast cells = conditions: cited from earlier work

Compound: Nc1nc(=O)c2c([nH]1)NCC(CNc1ccc(C(=O)N[C@@H](CCC(=O)O)C(=O)O)cc1)N2C=O (mixture of isomers) [Folinic Acid, Folinic acid]
- adenosine levels, folinic acid administered alone ([1]; all organs studied): increase in adenosine levels
- effect of co-administration of folinic acid on steroid-mediated adenosine depletion ([1]; co-administered with DHEA or methyltestosterone): completely abrogated

Compound: CC(C)CCC[C@@H](C)[C@H]1CC[C@H]2[C@@H]3CC=C4C[C@@H](O)CC[C@]4(C)[C@H]3CC[C@]12C [CH, cholesterol]
- reversal of DHEA-induced growth inhibition by supplement (HT-29 SF cells [2]): no such effect
- prevention of DHEA-induced S phase depletion (HT-29 SF cells [3]; 48 hours): very little effect

Compound: C[C@]12CC[C@H](O)CC1=CC[C@@H]1[C@@H]2CC[C@]2(C)C(=O)CC[C@@H]12 [DHEA, dehydroepiandrosterone]
- cell cycle effect (overall) (HT-29 SF cells [4]): G1 block
- inhibition of growth (HT-29 SF cells [5]; 0-200 μM, 0-72 hours): time- and dose-dependent inhibition of growth
- exposure time after which cell number reduced compared to controls (HT-29 SF cells [5]; 25 or 50 μM DHEA): 48 h

Compound: CC(C)[N+]1(C)[C@@H]2CC[C@H]1C[C@@H](OC(=O)C(CO)c1ccccc1)C2 (stereo partly drawn) [IB, Ipratropium Bromide]
- severe adverse effects attributable to ipratropium [6]: Neither the adult nor the pediatric studies reported severe adverse effects
- inhibition of histamine release (mast cell): no distinction

Compound: C[C@@](O)(CCO)CC(=O)O [MVA, mevalonic acid]
- reversal of DHEA-induced growth inhibition by supplement (HT-29 SF cells [2]): partially overcome
- prevention of DHEA-induced S phase depletion (HT-29 SF cells [3]; 48 hours): partially prevented
- prevention of DHEA-induced S phase depletion (HT-29 SF cells [3]; 72 hours): not

Compound: CC(C)=CCC/C(C)=C/CC/C(C)=C/CC/C=C(\C)CC/C=C(\C)CCC=C(C)C [SQ, squalene]
- reversal of DHEA-induced growth inhibition by supplement (HT-29 SF cells [2]): no such effect

Compound: CC(c1cc2ccccc2s1)N(O)C(N)=O (stereo not drawn) [Zyflo]
- beta-agonist puffs per day lower than baseline ([7]; at the end of the study): 31%
- number of beta-agonist puffs needed per day ([7]; at the end of the study): 1.77 puffs
- patients requiring steroid rescue ([7]; compared with 18.7% placebo): 7%
- reduction in patients requiring steroid rescue vs placebo ([7]; human, in vivo): 62%

Compound: Nc1ncnc2c1ncn2[C@@H]1O[C@H](CO)[C@@H](O)[C@H]1O [adenosine]
- PC40 for adenosine, mean [8]: 2.5 mg/mL
- PC40 for adenosine, mean [9]: 4.5 mg/mL

Compound: CN1[C@@H]2CC[C@H]1C[C@@H](OC(=O)C(CO)c1ccccc1)C2 (stereo partly drawn) [atropine]
- inhibition of histamine release (mast cell): no distinction

Compound: C[N+]1(C)[C@@H]2C[C@@H](OC(=O)C(O)(c3cccs3)c3cccs3)C[C@H]1[C@@H]1O[C@@H]12 [tiotropium bromide, Tiotropium bromide]
- affinity for muscarinic receptors (muscarinic receptors): high affinity
- dissociation from receptor [10]: dissociates very slowly
- duration of bronchodilator and bronchoprotective effect ([11]; Phase II, single inhaled doses): over 24 h
- patients with dryness of the mouth ([11]; human, in vivo): approximately 10%
- duration of stable bronchodilation ([11]; phase III clinical trials, inhaled once daily): more than 24 hours

Compound: CCC(CO)(C(=O)OC1C[C@H]2CC[C@@H](C1)[N+]2(C)C)c1ccccc1.[I-] (stereo partly drawn) [troventol]
- inhibition of histamine release (mast cell): 47%
- decrease in speed of passive calcium ion uptake (mast cells): 56.3%
